Reference: US12544395B2, “Combination compositions comprising a beta-lactamase inhibitor and uses thereof” (priority 2018, dated 2026)
In brackets after ≈: the same amount, converted by molar mass.

Tests used:
Assay type in all cases: cell-based
K. pneumoniae 11/23 LF#2 = experiment: microbe, parasite or virus in culture; conditions: Klebsiella pneumoniae, read-out: MIC of ceftibuten (CTB)
E. coli 25922 = experiment: Broth microdilution MIC (strain enzymes: None detected); conditions: Escherichia coli, 25922; alone; read-out: MIC of ceftibuten (CTB)
K. pneumoniae KP 3 = experiment: Broth microdilution MIC (strain enzymes: SHV-1, TEM-1); conditions: Klebsiella pneumoniae, KP3; alone; read-out: MIC of ceftibuten (CTB)
K. pneumoniae KP 4 = experiment: Broth microdilution MIC (strain enzymes: SHV-2a, SHV-5, TEM-1); conditions: Klebsiella pneumoniae, KP4; alone; read-out: MIC of ceftibuten (CTB)
E. coli ESBL 2 = experiment: Broth microdilution MIC (strain enzymes: TEM-1); conditions: Escherichia coli, ESBL2; alone; read-out: MIC of ceftibuten (CTB)
[1] = system: panel of ESBL-producing Enterobacteriaceae (40 strains); experiment: Broth microdilution MIC50/MIC90 summary over the panel
E. coli SI-M004 = experiment: Broth microdilution MIC (strain enzymes: SHV-2, GES-12); conditions: Escherichia coli, SIM004; alone; read-out: MIC of ceftibuten (CTB)
K. pneumoniae KI (KCl) = experiment: Broth microdilution MIC (strain enzymes: TEM-10); conditions: Klebsiella pneumoniae; alone; read-out: MIC of ceftibuten (CTB)
E. coli SI-NO36 = experiment: Broth microdilution MIC (strain enzymes: SHV-11, TEM-1); conditions: Escherichia coli, SINO36; alone; read-out: MIC of ceftibuten (CTB)
K. pneumoniae 304487 = experiment: Broth microdilution MIC (strain enzymes: SHV-12,TEM-1); conditions: Klebsiella pneumoniae, 304487; alone; read-out: MIC of ceftibuten (CTB)
K. pneumoniae 170375 = experiment: Broth microdilution MIC (strain enzymes: SHV-12, CTX-M15 and TEM-1); conditions: Klebsiella pneumoniae, 170375; alone; read-out: MIC of ceftibuten (CTB)
K. pneumoniae ESBL 7 #2 = experiment: Broth microdilution MIC (strain enzymes: SHV-12, CTX-M15, TEM-1); conditions: Klebsiella pneumoniae; alone; read-out: MIC of ceftibuten (CTB)
E. coli 2806 = experiment: Broth microdilution MIC (strain enzymes: SHV-12, TEM-1); conditions: Escherichia coli, 2806; alone; read-out: MIC of ceftibuten (CTB)
E. coli SI-AIRT-4 = experiment: Broth microdilution MIC (strain enzymes: TEM-1); conditions: Escherichia coli, SIAIRT4; alone; read-out: MIC of ceftibuten (CTB)
K. pneumoniae 329633 = experiment: Broth microdilution MIC (strain enzymes: SHV-5, TEM-1); conditions: Klebsiella pneumoniae, 329633; alone; read-out: MIC of ceftibuten (CTB)
K. pneumoniae ESBL 7 #1 = experiment: Broth microdilution MIC (strain enzymes: SHV-12, TEM-1); conditions: Klebsiella pneumoniae; alone; read-out: MIC of ceftibuten (CTB)
E. coli ESBL 4 = experiment: Broth microdilution MIC (strain enzymes: CTX-M15, TEM-1); conditions: Escherichia coli, ESBL4; alone; read-out: MIC of ceftibuten (CTB)
E. coli SI-LP377 = experiment: microbe, parasite or virus in culture; conditions: Escherichia coli, SILP377, read-out: MIC of ceftibuten (CTB)
K. pneumoniae SI-KP NO30 = experiment: Broth microdilution MIC (strain enzymes: TEM-26b, SHV-60, SHV-26); conditions: Klebsiella pneumoniae, SIKPNO30; alone; read-out: MIC of ceftibuten (CTB)
E. coli 3327 = experiment: Broth microdilution MIC (strain enzymes: TEM-1, SHV-12); conditions: Escherichia coli, 3327; alone; read-out: MIC of ceftibuten (CTB)
K. pneumoniae ESBL 8 #2 = experiment: Broth microdilution MIC (strain enzymes: SHV-12, TEM-1); conditions: Klebsiella pneumoniae; alone; read-out: MIC of ceftibuten (CTB)

Work on Nc1nc(/C(=C/CC(=O)O)C(=O)N[C@@H]2C(=O)N3C(C(=O)O)=CCS[C@H]23)cs1 [Ceftibuten, ceftibuten, reference compound] yielded an MIC (K. pneumoniae 11/23 LF#2) of 2 µg/mL, an MIC (E. coli 25922) of 0.25 µg/mL and an MIC (K. pneumoniae KP 3) of 2 µg/mL. The MIC (K. pneumoniae KP 4) was 32 µg/mL, the MIC (E. coli ESBL 2) was 8 µg/mL and the MIC50 ([1]; read-out: Ceftibuten MIC50) was 8 µg/mL (≈ 19.5 µM). For the same molecule, the MIC90 ([1]; read-out: Ceftibuten MIC90) was > 32 µg/mL, the MIC (E. coli SI-M004) was 32 µg/mL and the MIC (K. pneumoniae KI (KCl)) was 1 µg/mL. For the same molecule, the MIC (E. coli SI-NO36) was 0.5 µg/mL, the MIC (K. pneumoniae 304487) was 8 µg/mL and the MIC (K. pneumoniae 170375) was 32 µg/mL. The MIC (K. pneumoniae ESBL 7 #2) was > 32 µg/mL, the MIC (E. coli 2806) was 2 µg/mL and the MIC (E. coli SI-AIRT-4) was 0.5 µg/mL. The MIC (K. pneumoniae 329633) was 16 µg/mL, the MIC (K. pneumoniae ESBL 7 #1) was 32 µg/mL and the MIC (E. coli ESBL 4) was > 32 µg/mL. For the same molecule, the MIC (E. coli SI-LP377) was 4 µg/mL, the MIC (K. pneumoniae SI-KP NO30) was 0.25 µg/mL and the MIC (E. coli 3327) was 8 µg/mL. For the same molecule, the MIC (K. pneumoniae ESBL 8 #2) was 16 µg/mL.
